A compilation of properties of binary mixtures (doi:10.1016/j.jct.2022.106789)

Assay: xn = mol fraction of the nth substance listed
Settings: 100 kPa

CCCCCC[n+]1ccn(C)c1.O=S(=O)([O-])C(F)(F)F + CC(C)O
Settings | speed of sound, 293.15 K [m/s] | speed of sound, 298.15 K [m/s] | speed of sound, 303.15 K [m/s] | speed of sound, 308.15 K [m/s] | speed of sound, 313.15 K [m/s] | viscosity, 293.15 K [mPa·s] | viscosity, 298.15 K [mPa·s] | viscosity, 303.15 K [mPa·s] | viscosity, 308.15 K [mPa·s] | viscosity, 313.15 K [mPa·s]
x2 = 0 | 1376.7 | 1364.8 | 1353.2 | 1342.1 | 1330.9 | 195 | 151 | 116 | 91.1 | 74
x2 = 0.1282 | 1366.5 | – | 1343 | 1331.5 | 1319.9 | 129 | – | 80 | 61.9 | 51.6
x2 = 0.2454 | 1353 | – | 1329.3 | 1316.1 | 1305.8 | 87.1 | – | 57.5 | 44.6 | 37.2
x2 = 0.3506 | 1338.3 | 1326 | – | 1301 | 1290.9 | 60 | 48.3 | – | 31.8 | 27
x2 = 0.469 | 1319.3 | – | 1294 | 1281.8 | 1270.2 | 37.8 | – | 27.2 | 21 | 18
x2 = 0.5728 | 1299.1 | 1286 | 1273.8 | 1260.3 | 1247.8 | 24.5 | 20.4 | 17.1 | 14.2 | 11.9
x2 = 0.6564 | 1280 | 1266.1 | 1253.7 | 1240.2 | 1227.4 | 16.1 | 13.6 | 11.3 | 9.6 | 8.4
x2 = 0.7574 | 1251.3 | 1237.2 | 1223.1 | 1209.3 | 1195.7 | 9.63 | 8.06 | 6.67 | 5.85 | 5.11
x2 = 0.8422 | 1221.4 | 1207.1 | 1192.8 | 1178.4 | 1163.3 | 5.86 | 4.82 | 4.21 | 3.59 | 3.13
x2 = 0.9231 | – | 1175.5 | 1159.6 | 1142.7 | – | – | 3.15 | 2.68 | 2.34 | –

CC(C)O + CCCCCC[N+](CC)(CC)CC.O=S(=O)([N-]S(=O)(=O)C(F)(F)F)C(F)(F)F
x1 = 1
Settings | speed of sound [m/s] | viscosity [mPa·s]
293.15 K | 1155.7 | 2.42
313.15 K | 1085.8 | 1.34

CCCCCC[N+](CC)(CC)CC.O=S(=O)([N-]S(=O)(=O)C(F)(F)F)C(F)(F)F + CC(C)O
Settings | speed of sound, 293.15 K [m/s] | speed of sound, 298.15 K [m/s] | speed of sound, 303.15 K [m/s] | speed of sound, 308.15 K [m/s] | speed of sound, 313.15 K [m/s] | viscosity, 293.15 K [mPa·s] | viscosity, 298.15 K [mPa·s] | viscosity, 303.15 K [mPa·s] | viscosity, 308.15 K [mPa·s] | viscosity, 313.15 K [mPa·s]
x2 = 0 | 1295.3 | 1282.7 | 1270.4 | 1258.3 | 1246.7 | 241 | 187 | 138 | 105 | 80.7
x2 = 0.096 | – | 1277.1 | 1264.8 | 1252.7 | – | – | 136 | 109 | 90 | –
x2 = 0.2045 | 1282.6 | – | 1257.8 | 1246 | 1233.9 | 108 | – | 83.1 | 68.1 | 55.3
x2 = 0.3101 | 1273.6 | – | – | 1236.2 | 1224 | 74.1 | – | – | 49.3 | 41.4
x2 = 0.4056 | 1264 | 1250.9 | 1237.9 | – | 1213.3 | 55.3 | 50.3 | 44.3 | – | 30
x2 = 0.4987 | 1253.3 | – | 1226.8 | – | 1201.7 | 42.1 | – | 31.8 | – | 21.9
x2 = 0.5916 | 1240.8 | 1227.6 | 1214.5 | – | – | 30.7 | 25.3 | 20.9 | – | –
x2 = 0.7088 | 1220.1 | 1206.5 | 1192.8 | 1179.4 | 1166 | 17.9 | 14.4 | 12.1 | 10.4 | 9.33
x2 = 0.8015 | 1198 | 1184 | 1170.3 | – | 1142.5 | 11.2 | 8.83 | 7.01 | – | 4.94
x2 = 0.9193 | 1167 | 1151.8 | 1136.7 | – | 1106.5 | 5.24 | 4.36 | 3.67 | – | 2.38
x2 = 0.9503 | 1161 | – | – | – | – | – | – | – | – | –

CC(C)O + CCCCCC[n+]1ccn(C)c1.O=S(=O)([O-])C(F)(F)F
x1 = 1
Settings | speed of sound [m/s] | viscosity [mPa·s]
293.15 K | 1155.7 | 2.42
303.15 K | 1120.8 | 1.73
313.15 K | 1085.8 | 1.34
